One assay deals with activated human MoDCs. In words: Human MoDC IL-23 secretion assay. Format: cell-based. The note with it: PGE1-OH (10 nM); LPS/R-848 activated human MoDCs, 24 h; read-out: IC50 (Ave. of two experiments), inhibiting PGE1-OH enhanced IL-23 production. Here is the method: In vitro human monocytes derived DC assay. CD14^+ cells were purified from human PBMCs using Miltenyi CD14 microbeads, and differentiated with human GM-CSF (500 U/ml)+human IL-4 (500 U/ml) in complete RPMI medium containing 10% charcoal-stripped FBS for […]. The unattached imDCs were stimulated with LPS (10 ng/ml)+R-848 (2.5 μg/ml) with or without addition of EP4 agonist/antagonist or anti-PGE2 Ab at the concentrations indicated for 24 h. IL-23 in culture supernatants were measured by ELISA (eBioscience).
Human CD14^+ monocytes were differentiated into imDCs with GM-CSF plus IL-4 for 7 days and re-stimulated with LPS/R-848 in the presence or absence of exogenous PGE1-OH (1-100 nM) and with and without ER-819762 (FIG. 13) or ER-819924 or anti-PGE2 Ab (FIG. 14) for 24 h. IL-23 secretion in culture supernatants was measured by ELISA. […] IC50 values of representative compounds in human MoDC IL-23 secretion assay.

The target in a further assay is human T-bet (Homo sapiens, UniProt Q9UL17). In words: HEKT-bet-luc assay (normalized). The assay is classed as cell-based. To be noted: reference compound used for normalization; read-out: established potency of the reference compound (IC50). Here is the method:
HEKT-bet-luc assay: This assay measures a T-bet dependent reporter (luciferase) activity in engineered HEK cells that express a human T-bet and a T-box responsive element driving luciferase reporter. HEKT-bet cells were plated at 2×10^4/well in 96-well plate and compound was added into cell culture for 24 hours. Luciferase activity was measured by adding 50 μl of Steady-Glo reagent (Promega) and samples were read in Victor V reader (PerkinElmer). The activity of compound was determined by comparing compound treated samples to non-compound treated vehicle controls. The IC50 values were calculated utilizing a maximum value corresponding to the amount of luciferase in the absence of a test compound and a minimum value corresponding to a test compound value obtained at maximum inhibition.
Determination of Normalized HEKT-bet IC50 values: Compounds were assayed in microtiter plates. […] The un-normalized IC50 value for a particular compound was divided by the IC50 value determined for the reference compound in the same microtiter plate to provide a relative potency value. […]
Exemplary compounds of the present invention were assayed according to the methods set forth above in the HEKT-bet-luc assay described above. Table 2 below set forth exemplary compounds of the present invention having an IC50 of up to the indicated amount (μM) as determined by the normalized HEKT-bet-luc assay described above.

In the next assay the test system is CAIA mouse. Put plainly: Suppression of arthritis development in CAIA. Format: in vivo. The note with it: once daily PO day 0 to day 7. Here is the method: Suppression of arthritis development in CAIA. BALB/c mice were injected i.v. with 1 mg of anti-type II collagen antibody at day 0, and 3 days later 25 μg of LPS was injected i.p. with active compound and methotrexate (MTX) was given once daily PO from day 0 to day 7. Arthritis score and body weight was monitored over the course of study.

In the next assay the target is T1, EP4 (Homo sapiens, UniProt P35408).
T1 construct: SE302 cells that express endogenous EP4; endogenous in cells; host or cells: SE302 cells
Put plainly: PGE2 induced CRE-PLAP reporter assay in SE302 cells. The note with it: tested at 0.3 nM to 10 μM. Format: cell-based. Here is the method:
CRE-PLAP reporter assay. SE302 cells that express endogenous EP4 were stimulated with PGE2 in the presence or absence of ER-819762 for overnight, and PLAP activity was measured.

The next assay deals with Naive CD4 T cells. In words: Mouse Th1 differentiation assay. The assay is classed as cell-based. To be noted: for effect on Th1 differentiation: added during Th1 differentiation, 3 days. Here is the method: In vitro T cell assays. Naive CD4^+ T cells were purified from spleens of either BALB/c or D011.10 mice by Robosep as described by the manufacture. For BALB/c mice, 1×10^5 of CD4^+ T cells were cultured for 3-6 days in a 96-well plate in 100 μl of complete RPMI medium (Cellgro) containing either 10% of regular fetal bovine serum (Hyclone) or charcoal stripped FBS (Hyclone) (when exogenous PGE2 or EP4 agonists were added to the culture) under either neutral condition (1 μg/ml of plate-bound anti-CD3+1 μg/ml of soluble anti-CD28+10 ng/ml of mouse IL-2) or under Th1 promoting condition (neutral+5 ng/ml of mouse IL-12+10 μg/ml of anti-IL-4) or under Th2 differentiation condition (neutral+10 ng/ml of mouse IL-4+10 μg/ml of […]). IFNγ or IL-4 in culture supernatants were detected by ELISA. Cell pellets were used to measure cell proliferation with either Alamar blue or CellTiter-Glo reagents according to the instructions of the manufacture. For D011.10 mice, mitomycin C treated splenocytes from BALB/c mice were used as antigen presenting cells and co-cultured with naive CD4^+ T cells in 5 to 1 ratio (5×10^5 of mitomycin C treated splenocytes in 100 μl medium+1×10^5 CD^4 T cells in 100 μl medium) and stimulated with OVA peptide (0.3 ng/ml) under either neutral, Th1 or Th2 promoting conditions as described above. EP4 agonists, antagonists or anti-PGE2 Ab were added during Th cell differentiation.
To investigate whether EP4 activation plays a role in Th1 differentiation, the effect of PGE2 or EP4 agonist and anti-PGE2 antibody was examined in a mouse Th1 differentiation assay. Naive CD4 T cells were differentiated with Th1 promoting agents for 3 days. Th1 cytokine IFNγ in culture supernatants was measured by ELISA. Cell proliferation was measured by Alamar blue assay. PGE2 or EP4 agonist PGE1-OH was added during Th1 differentiation.

The test system of assay [1] is activated mouse CD4+ T cells. In words: IL-17 production in activated mouse CD4+ T cells. The assay is classed as cell-based. To be noted: anti-CD3/anti-CD28 stimulated CD4+ T cells. The protocol: To study the effect of EP4 agonist/antagonist on IL-17 production, total CD4^+ T cells from C57BL/6 mice were activated with plate-bound anti-CD3 (2 μg/ml) plus soluble anti-CD 28 (2 μg/ml) in the presence or absence of IL-23 (10 ng/ml) or EP4 agonist/antagonists at indicated concentrations for 3-5 days. Culture supernatants were analyzed by IL-17 ELISA, and cell pellets were used to measure cell proliferation with CellTite-Glo reagents.
To investigate whether EP4 also plays a role in a Th17 response, the effect of EP4 activation by PGE2 or EP4 agonist on IL-17 production in activated mouse CD4^+ T cells was examined. Total CD4^+ T cells were stimulated with anti-CD3/anti-CD28 with and without IL-23 and in the presence or absence of PGE2 or EP4 agonist PGE1-OH (0.1 nM to 1000 nM) for 3-5 days. IL-17 in culture supernatants was measured by ELISA and cell proliferation was measured by CellTiter-glo.

T1 sequence (P35408 whole entry): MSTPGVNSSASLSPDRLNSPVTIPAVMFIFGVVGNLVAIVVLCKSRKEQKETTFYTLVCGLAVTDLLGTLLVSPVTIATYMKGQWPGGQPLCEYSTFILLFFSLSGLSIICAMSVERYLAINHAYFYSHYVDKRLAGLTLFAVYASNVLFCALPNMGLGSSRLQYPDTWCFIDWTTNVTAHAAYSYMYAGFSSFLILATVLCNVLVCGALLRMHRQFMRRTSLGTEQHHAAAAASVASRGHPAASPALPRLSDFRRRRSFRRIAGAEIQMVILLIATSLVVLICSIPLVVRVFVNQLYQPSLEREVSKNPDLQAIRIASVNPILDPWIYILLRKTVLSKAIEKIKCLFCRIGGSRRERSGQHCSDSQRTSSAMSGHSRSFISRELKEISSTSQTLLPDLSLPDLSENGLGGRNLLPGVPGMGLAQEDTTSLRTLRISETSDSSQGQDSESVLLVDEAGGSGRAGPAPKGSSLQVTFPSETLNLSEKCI
Chain of human T-bet (Q9UL17 whole entry): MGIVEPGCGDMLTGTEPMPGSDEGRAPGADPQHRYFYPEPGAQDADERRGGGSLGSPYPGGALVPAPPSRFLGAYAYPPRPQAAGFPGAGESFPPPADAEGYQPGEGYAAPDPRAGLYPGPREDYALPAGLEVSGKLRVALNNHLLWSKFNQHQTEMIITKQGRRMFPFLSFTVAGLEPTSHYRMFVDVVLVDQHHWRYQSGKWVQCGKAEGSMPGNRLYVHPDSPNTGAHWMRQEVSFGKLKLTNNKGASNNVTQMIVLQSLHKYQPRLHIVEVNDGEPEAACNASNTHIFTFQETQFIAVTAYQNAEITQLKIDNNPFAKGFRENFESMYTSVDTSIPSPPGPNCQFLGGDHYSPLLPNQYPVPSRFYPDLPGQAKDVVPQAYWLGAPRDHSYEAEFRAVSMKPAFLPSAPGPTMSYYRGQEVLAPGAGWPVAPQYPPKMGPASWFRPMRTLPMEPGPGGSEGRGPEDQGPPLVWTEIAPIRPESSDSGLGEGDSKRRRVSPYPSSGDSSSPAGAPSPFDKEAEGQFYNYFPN

A word on the IC50: it is the midpoint of a concentration-inhibition curve. On to `CCN1C(=O)N2Cc3cc(OC)cc(OC)c3[C@@H](C)C=C2C12CCN(Cc1c[nH]nc1C)CC2` [ER-819826-01], for which, in the assay with activated human MoDCs, the 50% inhibitory concentration (IC50) was 185 nM.
For `COCCN1C(=O)N2Cc3cc(OC)cc(OC)c3C(C)(C)C=C2C12CCN(Cc1cc(OC)cc(OC)c1)CC2` [ER-819544], the half-inhibitory concentration (IC50) at human T-bet came to 35 nM.
Regarding `CN(Cc1cnc2nc(N)nc(N)c2n1)c1ccc(C(=O)N[C@@H](CCC(=O)O)C(=O)O)cc1` [methotrexate], the “activity in CAIA model” value in the assay on CAIA mouse is recorded as “not particularly active”.
Regarding `CCN1C(=O)N2Cc3cc(OC)cc(OC)c3[C@@H](C)C=C2C12CCN(Cc1cccn1C)CC2` [ER-819924], the half-inhibitory concentration (IC50) in the assay with activated human MoDCs is < 200 nM. For the same compound, the “inhibition of PGE2 induced CRE-PLAP reporter activity” value on EP4 is given as “potent inhibitory activities”.
Regarding `CCCCC[C@H](O)/C=C/[C@H]1[C@H](O)CC(=O)[C@@H]1C/C=C\CCCC(=O)O` [PGE2, prostaglandin E2], in the assay with Naive CD4 T cells, the “effect on Th1 differentiation” value was “enhanced Th1 differentiation”.
The same measure, in the same setting: the same measure for `CCCCC[C@H](O)/C=C/[C@H]1[C@H](O)CC(=O)[C@@H]1CCCCCCCO` [PGE1-OH, PGE1-alcohol]: “enhanced Th1 differentiation”.
For the compound `CCN1C(=O)N2Cc3cc(OC)cc(OC)c3[C@@H](C)C=C2C12CCN(Cc1cc(C)cc(C)c1)CC2` [ER-819762], the “effect on PGE2/PGE1-OH enhanced IL-17 production” value in assay [1] is “suppresses”. In addition, the “added activity to anti-PGE2 Ab in Th1 differentiation” value in the assay with Naive CD4 T cells (combination with anti-PGE2 Ab) is “no added activity”. In addition, the IC50 in the assay with activated human MoDCs lay within 40 to 200 nM. In addition, the “inhibition of PGE2 induced CRE-PLAP reporter activity” value against EP4 is “potent inhibitory activities”.
For `CCN1C(=O)N2Cc3cc(OC)cc(OC)c3[C@@H](C)C=C2C12CCN(Cc1nc(C)oc1C)CC2` [ER-811283-01], in the assay on activated human MoDCs, the IC50 was 57 nM.
With `CCN1C(=O)N2Cc3cc(OC)cc(OC)c3[C@@H](C)C=C2C12CCN(Cc1cc(C)cc(C)c1)CC2` [ER-819762-01], the “effect on PGE2/PGE1-OH enhanced IL-17 production” value in assay [1] is listed as “suppressed the activity”.

Source of the values: US20100305098A1, “METHODS OF USE” (priority 2007, published 2010).
